Test results taken from patent US20120129833A1, “CYCLIC KETOENOLS FOR THERAPY” (BAYER PHARMA AKTIENGESELLSCHAFT, priority 2010, published 2012).

Key:
[1] = molecular target: T1, ACC2 (acetyl-CoA carboxylase 2) (Homo sapiens, UniProt O00763); assay: Human ACC2 enzyme assay (HTRF ADP detection); assay type: biochemical; settings: 20 μM acetyl-CoA, 15 min pre-incubation, 20 min at 22° C.; read-out: ACC 2 IC50
T1 construct: catalogue no; 50201, amino acids 39—end, expressed in baculovirus-transfected Sf9 insect cells; His (C); purchased BPS Bioscience (San Diego, Calif.) 50201; host or cells: baculovirus-transfected Sf9 insect cells
T1 sequence (O00763 39-2458 limits assumed): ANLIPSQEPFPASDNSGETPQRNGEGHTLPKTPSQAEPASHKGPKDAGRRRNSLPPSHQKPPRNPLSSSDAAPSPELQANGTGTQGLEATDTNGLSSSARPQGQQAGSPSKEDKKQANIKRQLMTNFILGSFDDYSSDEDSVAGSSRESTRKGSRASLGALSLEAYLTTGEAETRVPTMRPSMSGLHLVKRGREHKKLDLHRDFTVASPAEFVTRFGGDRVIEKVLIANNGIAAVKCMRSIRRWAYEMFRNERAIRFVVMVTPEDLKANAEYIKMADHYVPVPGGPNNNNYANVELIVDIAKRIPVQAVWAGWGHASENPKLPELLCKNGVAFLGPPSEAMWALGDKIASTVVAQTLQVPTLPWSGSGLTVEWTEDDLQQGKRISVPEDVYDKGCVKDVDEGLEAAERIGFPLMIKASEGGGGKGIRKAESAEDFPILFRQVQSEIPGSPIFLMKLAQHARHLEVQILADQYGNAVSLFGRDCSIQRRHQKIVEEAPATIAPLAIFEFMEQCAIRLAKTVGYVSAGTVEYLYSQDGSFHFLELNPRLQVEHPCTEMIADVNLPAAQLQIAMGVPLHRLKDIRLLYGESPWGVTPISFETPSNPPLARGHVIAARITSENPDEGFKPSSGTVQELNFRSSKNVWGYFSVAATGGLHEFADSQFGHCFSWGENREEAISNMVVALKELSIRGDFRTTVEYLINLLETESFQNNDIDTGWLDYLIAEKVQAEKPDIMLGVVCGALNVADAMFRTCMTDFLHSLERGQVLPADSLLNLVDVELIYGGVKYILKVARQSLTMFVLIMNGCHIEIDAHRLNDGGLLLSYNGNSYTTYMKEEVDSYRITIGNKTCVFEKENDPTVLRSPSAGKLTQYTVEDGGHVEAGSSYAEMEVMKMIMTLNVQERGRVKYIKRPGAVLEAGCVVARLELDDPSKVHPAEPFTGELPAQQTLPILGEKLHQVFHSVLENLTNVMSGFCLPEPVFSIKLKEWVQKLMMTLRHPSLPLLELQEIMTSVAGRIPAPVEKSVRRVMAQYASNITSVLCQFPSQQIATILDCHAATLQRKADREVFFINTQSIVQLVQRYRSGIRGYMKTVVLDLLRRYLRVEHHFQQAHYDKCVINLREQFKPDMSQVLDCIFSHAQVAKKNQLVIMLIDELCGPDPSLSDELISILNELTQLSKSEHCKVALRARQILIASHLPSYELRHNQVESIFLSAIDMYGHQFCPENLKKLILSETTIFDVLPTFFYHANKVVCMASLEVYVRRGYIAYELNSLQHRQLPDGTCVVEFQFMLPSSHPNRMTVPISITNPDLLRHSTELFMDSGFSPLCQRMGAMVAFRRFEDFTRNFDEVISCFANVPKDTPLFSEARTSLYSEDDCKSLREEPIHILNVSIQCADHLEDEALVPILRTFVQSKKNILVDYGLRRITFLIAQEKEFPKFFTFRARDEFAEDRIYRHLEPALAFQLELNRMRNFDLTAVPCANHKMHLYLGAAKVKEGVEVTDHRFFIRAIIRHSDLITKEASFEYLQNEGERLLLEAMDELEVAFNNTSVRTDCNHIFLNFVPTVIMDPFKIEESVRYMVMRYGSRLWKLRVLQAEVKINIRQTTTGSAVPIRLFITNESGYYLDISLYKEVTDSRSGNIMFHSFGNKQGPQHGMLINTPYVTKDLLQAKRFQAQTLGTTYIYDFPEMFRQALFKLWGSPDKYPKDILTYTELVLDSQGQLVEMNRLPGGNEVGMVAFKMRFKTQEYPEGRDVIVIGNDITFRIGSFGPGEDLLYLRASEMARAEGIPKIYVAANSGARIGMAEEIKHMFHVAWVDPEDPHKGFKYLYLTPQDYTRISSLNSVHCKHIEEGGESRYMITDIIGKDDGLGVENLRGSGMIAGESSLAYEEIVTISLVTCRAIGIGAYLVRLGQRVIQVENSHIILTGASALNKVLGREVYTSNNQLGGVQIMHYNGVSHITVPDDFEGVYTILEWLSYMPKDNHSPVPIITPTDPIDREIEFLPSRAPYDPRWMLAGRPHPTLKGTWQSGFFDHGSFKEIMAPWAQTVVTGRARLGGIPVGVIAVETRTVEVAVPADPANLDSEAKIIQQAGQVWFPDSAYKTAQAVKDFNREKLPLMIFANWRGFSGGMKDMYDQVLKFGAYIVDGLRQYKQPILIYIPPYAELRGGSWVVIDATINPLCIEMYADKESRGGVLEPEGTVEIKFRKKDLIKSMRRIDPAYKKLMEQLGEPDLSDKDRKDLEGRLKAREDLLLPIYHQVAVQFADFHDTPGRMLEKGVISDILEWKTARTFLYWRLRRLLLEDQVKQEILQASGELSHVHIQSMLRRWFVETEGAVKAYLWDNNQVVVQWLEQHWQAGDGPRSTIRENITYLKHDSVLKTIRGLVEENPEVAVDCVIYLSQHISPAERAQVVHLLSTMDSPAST
Experimental: The inhibitory activity of the substances of this invention with regard to acetyl-CoA carboxylase 2 (ACC2) was measured using the ACC2 assay described in the paragraphs below. The basic principle of the assay is the measurement of adenosine diphosphate (ADP), which is formed as a by-product, by means of an HTRF®-based competitive immunoassay (HTRF=Homogeneous Time Resolved Fluorescence).
(§1) The amount of complex of d2-labelled ADP and europium cryptate-labelled anti-ADP antibody was then determined by measuring the resonance energy transfer of europium cryptate to d2.

[2] = molecular target: T2, recombinant human ACC1 (acetyl-CoA carboxylase 1) (Homo sapiens, UniProt Q13085); assay: Human ACC1 enzyme assay (HTRF ADP detection); assay type: biochemical; settings: 50 μM ATP, 20 μM acetyl-CoA, 15 min pre-incubation, 20 min at 22° C.; read-out: ACC 1 IC50;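 note: ADP by-product quantified by competitive HTRF immunoassay with europium cryptate anti-ADP antibody and d2-labelled ADP, read after 1 h binding at 22 °C, enzyme near 2.5 ng/µl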
T2 construct: NM_198834, amino acids 39—end; FLAG (C); made in house; host or cells: baculovirus-transfected insect cells (Hi5)
Experimental: The basic principle of the assay is the measurement of adenosine diphosphate (ADP), which is formed as a by-product, by means of an HTRF®-based competitive immunoassay (HTRF=Homogeneous Time Resolved Fluorescence).
as §1

## Cc1cc(C)c(-c2ccc(Cl)cc2)cc1C1=C(O)C2(CCOCC2)OC1=O [Example 2-41, 3-(4′-chloro-4,6-dimethylbiphenyl-3-yl)-4-hydroxy-1,8-dioxaspiro[4.5]dec-3-en-2-one]
[1]
  IC50: 4220 nM
[2]
  IC50: 791 nM

## Cc1cc(C)c(-c2ccc(Cl)cc2)cc1C1=C(O)C2(CCSCC2)OC1=O [Example 2-42, 3-(4′-chloro-4,6-dimethylbiphenyl-3-yl)-4-hydroxy-1-oxa-8-thiaspiro[4.5]dec-3-en-2-one]
[1]
  IC50: 1020 nM
[2]
  IC50: 357 nM

## Cc1cc(C)c(-c2ccc(Cl)cc2)cc1C1=C(O)C2(CCCCCC2)OC1=O [Example 2-43, 3-(4′-chloro-4,6-dimethylbiphenyl-3-yl)-4-hydroxy-1-oxaspiro[4.6]undec-3-en-2-one]
[1]
  IC50: 330 nM
[2]
  IC50: 504 nM

## COC1CCC2(CC1)OC(=O)C(c1cc(-c3ccc(Cl)cc3)c(C)cc1C)=C2O (stereo not drawn) [Example 2-44, 3-(4′-chloro-4,6-dimethylbiphenyl-3-yl)-4-hydroxy-8-methoxy-1-oxaspiro[4.5]dec-3-en-2-one]
[1]
  IC50: 160 nM
[2]
  IC50: 297 nM

## Cc1cc(C)c(-c2ccc(Cl)cc2)cc1C1=C(O)C(C)OC1=O (stereo not drawn) [Example 2-45, 3-(4′-chloro-4,6-dimethylbiphenyl-3-yl)-4-hydroxy-5-methylfuran-2(5H)-one]
[1]
  IC50: 17000 nM
[2]
  IC50: 568 nM

## Cc1cc(C)c(-c2ccc(Cl)cc2)cc1C1=C(O)C2(CCCOC2)OC1=O (stereo not drawn) [Example 2-46, 3-(4′-chloro-4,6-dimethylbiphenyl-3-yl)-4-hydroxy-1,7-dioxaspiro[4.5]dec-3-en-2-one]
[1]
  IC50: 7610 nM
[2]
  IC50: 580 nM

## Cc1cc(C)c(-c2ccc(Cl)cc2)c(C)c1C1=C(O)C2(CCCCCC2)OC1=O [Example 2-48, 3-(4′-chloro-2,4,6-trimethylbiphenyl-3-yl)-4-hydroxy-1-oxaspiro[4.6]undec-3-en-2-one]
[1]
  IC50: 204 nM
[2]
  IC50: 1800 nM

## Cc1cc(C)c(-c2ccc(Cl)cc2)c(C)c1C1=C(O)C2(CCCC2)OC1=O [Example 2-49, 3-(4′-chloro-2,4,6-trimethylbiphenyl-3-yl)-4-hydroxy-1-oxaspiro[4.4]non-3-en-2-one]
[1]
  IC50: 1280 nM
[2]
  IC50: 5780 nM

## Cc1ccc(-c2cccc(Cl)c2)cc1C1=C(O)C2(CCCCCC2)OC1=O [Example 2-50, 3-(3′-chloro-4-methylbiphenyl-3-yl)-4-hydroxy-1-oxaspiro[4.6]undec-3-en-2-one]
[1]
  IC50: 8590 nM
[2]
  IC50: 903 nM

## Cc1ccc(-c2ccc(Cl)cc2)cc1C1=C(O)C2(CCCCC2)SC1=O [Example 3-2, 3-(4′-chloro-4-methylbiphenyl-3-yl)-4-hydroxy-1-thiaspiro[4.5]dec-3-en-2-one]
[1]
  IC50: 1670 nM
[2]
  IC50: 97 nM

## Cc1cc(C)c(-c2ccc(Cl)cc2)cc1C1=C(O)C2(CCCCC2)SC1=O [Example 3-3, 3-(4′-chloro-4,6-dimethylbiphenyl-3-yl)-4-hydroxy-1-thiaspiro[4.5]dec-3-en-2-one]
[1]
  IC50: 250 nM
[2]
  IC50: 340 nM

## Cc1cc(C)c(-c2ccc(Cl)cc2)c(C)c1C1=C(O)C2(CCCCC2)SC1=O [Example 3-4, 3-(4′-chloro-2,4,6-trimethylbiphenyl-3-yl)-4-hydroxy-1-thiaspiro[4.5]dec-3-en-2-one]
[1]
  IC50: 228 nM
[2]
  IC50: 1310 nM

## Cc1ccc(-c2ccc(C)c(C3=C(O)C4(CCCCC4)CC3=O)c2)cc1 [Example 6-1, 3-(4,4′-dimethylbiphenyl-3-yl)-4-hydroxyspiro[4.5]dec-3-en-2-one]
[1]
  IC50: 16000 nM
[2]
  IC50: 655 nM

## Cc1ccc(-c2ccc(Cl)cc2Cl)cc1C1=C(O)C2(CCCCC2)CC1=O [Example 6-2, 3-(2′,4′-dichloro-4-methylbiphenyl-3-yl)-4-hydroxyspiro[4.5]dec-3-en-2-one]
[1]
  IC50: 1690 nM
[2]
  IC50: 337 nM

## Cc1ccc(-c2cccc(Cl)c2)cc1C1=C(O)C2(CCCCC2)CC1=O [Example 6-3, 3-(3′-chloro-4-methylbiphenyl-3-yl)-4-hydroxyspiro[4.5]dec-3-en-2-one]
[1]
  IC50: 16200 nM
[2]
  IC50: 1390 nM

## Cc1ccc(-c2ccc(Cl)cc2)cc1C1=C(O)C2(CCCC2)CC1=O [Example 6-4, 3-(4′-chloro-4-methylbiphenyl-3-yl)-4-hydroxyspiro[4.4]non-3-en-2-one]
[1]
  IC50: 3060 nM
[2]
  IC50: 333 nM

## CCC1CCC2(CC1)CC(=O)C(c1cc(-c3ccc(Cl)cc3)ccc1C)=C2O (stereo not drawn) [Example 6-5, 3-(4′-chloro-4-methylbiphenyl-3-yl)-8-ethyl-4-hydroxyspiro[4.5]dec-3-en-2-one]
[1]
  IC50: 565 nM
[2]
  IC50: 754 nM

## CCCC1CCC2(CC1)CC(=O)C(c1cc(-c3ccc(Cl)cc3)ccc1C)=C2O (stereo not drawn) [Example 6-6, 3-(4′-chloro-4-methylbiphenyl-3-yl)-4-hydroxy-8-propylspiro[4.5]dec-3-en-2-one]
[1]
  IC50: 783 nM
[2]
  IC50: 923 nM

## Cc1ccc(-c2ccc(Cl)cc2)cc1C1=C(O)C2(CCCCCC2)CC1=O [Example 6-7, 3-(4′-chloro-4-methylbiphenyl-3-yl)-4-hydroxyspiro[4.6]undec-3-en-2-one]
[1]
  IC50: 654 nM
[2]
  IC50: 467 nM

## Cc1cc(C)c(-c2ccc(Cl)cc2)cc1C1=C(O)C2(CCCCC2)CC1=O [Example 6-8, 3-(4′-chloro-4,6-dimethylbiphenyl-3-yl)-4-hydroxyspiro[4.5]dec-3-en-2-one]
[1]
  IC50: 127 nM
[2]
  IC50: 1380 nM

## Cc1cc(C)c(-c2ccc(Cl)cc2)c(C)c1C1=C(O)C2(CCCCC2)CC1=O [Example 6-9, 3-(4′-chloro-2,4,6-trimethylbiphenyl-3-yl)-4-hydroxyspiro[4.5]dec-3-en-2-one]
[1]
  IC50: 387 nM
[2]
  IC50: > 20000 nM

## Cc1ccc(-c2ccc(Cl)cc2)cc1C1=C(O)CC(C)CC1=O (stereo not drawn) [Example 7-1, 2-(4′-chloro-4-methylbiphenyl-3-yl)-3-hydroxy-5-methylcyclohex-2-en-1-one]
[1]
  IC50: > 20000 nM
[2]
  IC50: 678 nM

## Cc1ccc(-c2ccc(Cl)cc2)cc1C1=C(O)CC2(CCCCC2)CC1=O [Example 7-2, 3-(4′-chloro-4-methylbiphenyl-3-yl)-4-hydroxyspiro[5.5]undec-3-en-2-one]
[1]
  IC50: > 20000 nM
[2]
  IC50: 578 nM

## Cc1cc(C)c(-c2ccc(Cl)cc2)cc1C1=C(O)CC(C)(C)CC1=O [Example 7-3, 2-(4′-chloro-4,6-dimethylbiphenyl-3-yl)-3-hydroxy-5,5-dimethylcyclohex-2-en-1-one]
[1]
  IC50: 5340 nM
[2]
  IC50: 1590 nM

## Cc1cc(C)c(-c2ccc(Cl)cc2)cc1C1=C(O)C(C)(C)CCC1=O [Example 7-4, 2-(4′-chloro-4,6-dimethylbiphenyl-3-yl)-3-hydroxy-4,4-dimethylcyclohex-2-en-1-one]
[1]
  IC50: 3710 nM
[2]
  IC50: 3670 nM

## Cc1ccc(-c2ccc(Cl)cc2)cc1C1=C(O)CC(C)(C)CC1=O [Example 7-5, 2-(4′-chloro-4-methylbiphenyl-3-yl)-3-hydroxy-5,5-dimethylcyclohex-2-en-1-one]
[1]
  IC50: > 20000 nM
[2]
  IC50: 610 nM

## Cc1ccc(-c2ccc(F)cc2)c(C)c1C1C(=O)N2CCCCN2C1=O [Example 8-1, 2-(4′-fluoro-2,4-dimethylbiphenyl-3-yl)tetrahydro-1H-pyrazolo[1,2-a]pyridazine-1,3(2H)-dione]
[1]
  IC50: > 20000 nM
[2]
  IC50: 2460 nM

## O=C1C(c2cc(-c3ccc(Cl)cc3)ccc2Cl)C(=O)N2CCCCN12 [Example 8-2, 2-(4,4′-dichlorobiphenyl-3-yl)tetrahydro-1H-pyrazolo[1,2-a]pyridazine-1,3(2H)-dione]
[1]
  IC50: > 20000 nM
[2]
  IC50: 891 nM

## Cc1ccc(-c2ccc(Cl)cc2)cc1C1C(=O)N2CCCCN2C1=O [Example 8-3, 2-(4′-chloro-4-methylbiphenyl-3-yl)tetrahydro-1H-pyrazolo[1,2-a]pyridazine-1,3(2H)-dione]
[1]
  IC50: > 20000 nM
[2]
  IC50: 1140 nM

## O=C1C(c2cc(-c3ccc(F)c(Cl)c3)ccc2Cl)C(=O)N2CCCCN12 [Example 8-4, 2-(3′,4-dichloro-4′-fluorobiphenyl-3-yl)tetrahydro-1H-pyrazolo[1,2-a]pyridazine-1,3(2H)-dione]
[1]
  IC50: > 20000 nM
[2]
  IC50: 3180 nM

## Cc1ccc(-c2ccc(F)cc2F)cc1C1C(=O)N2CCOCCN2C1=O [Example 8-5, 8-(2′,4′-difluoro-4-methylbiphenyl-3-yl)tetrahydro-7H-pyrazolo[1,2-d][1,4,5]oxadiazepine-7,9(8H)-dione]
[1]
  IC50: > 20000 nM
[2]
  IC50: 2080 nM

## Cc1ccc(-c2ccc(Cl)cc2)cc1C1C(=O)N2CCOCCN2C1=O [Example 8-6, 8-(4′-chloro-4-methylbiphenyl-3-yl)tetrahydro-7H-pyrazolo[1,2-d][1,4,5]oxadiazepine-7,9(8H)-dione]
[1]
  IC50: > 20000 nM
[2]
  IC50: 1380 nM

## Cc1ccc(-c2ccc(F)cc2)c(C)c1C1C(=O)N2CCOCCN2C1=O [Example 8-7, 8-(4′-fluoro-2,4-dimethylbiphenyl-3-yl)tetrahydro-7H-pyrazolo[1,2-d][1,4,5]oxadiazepine-7,9(8H)-dione]
[1]
  IC50: > 20000 nM
[2]
  IC50: 2380 nM

## Cc1ccc(-c2ccc(Cl)cc2)c(C)c1C1C(=O)N2CCOCCN2C1=O [Example 8-8, 8-(4′-chloro-2,4-dimethylbiphenyl-3-yl)tetrahydro-7H-pyrazolo[1,2-d][1,4,5]oxadiazepine-7,9(8H)-dione]
[1]
  IC50: 16900 nM
[2]
  IC50: 936 nM

## O=C1C(c2cc(-c3ccc(Cl)cc3Cl)ccc2Cl)C(=O)N2CCOCCN12 [Example 8-9, 8-(2′,4,4′-trichlorobiphenyl-3-yl)tetrahydro-7H-pyrazolo[1,2-d][1,4,5]oxadiazepine-7,9(8H)-dione]
[1]
  IC50: > 20000 nM
[2]
  IC50: 457 nM

## O=C1C(c2cc(-c3ccc(Cl)c(Cl)c3)ccc2Cl)C(=O)N2CCOCCN12 [Example 8-10, 8-(3′,4,4′-trichlorobiphenyl-3-yl)tetrahydro-7H-pyrazolo[1,2-d][1,4,5]oxadiazepine-7,9(8H)-dione]
[1]
  IC50: > 20000 nM
[2]
  IC50: 1130 nM
